From the NIST ThermoML archive (doi:10.1021/acs.jced.8b00855)
Numbers after ± are expanded uncertainties.

Experiments:
[1] = Liquid, Ebulliometric method (Recirculating still)
[2] = Boiling temperature at pressure P; settings: Liquid, Ebulliometric method (Recirculating still)

| SMILES | vapor or sublimation pressure ([1]; 403.4 K) [kPa] | vapor or sublimation pressure ([1]; 405.8 K) [kPa] | vapor or sublimation pressure ([1]; 408.4 K) [kPa] | vapor or sublimation pressure ([1]; 409.8 K) [kPa] | vapor or sublimation pressure ([1]; 413.4 K) [kPa] | Boiling temperature at pressure P ([2]; 71.47 kPa) [°C] | Boiling temperature at pressure P ([2]; 78.36 kPa) [°C] | Boiling temperature at pressure P ([2]; 85.5 kPa) [°C] | Boiling temperature at pressure P ([2]; 89.49 kPa) [°C] | Boiling temperature at pressure P ([2]; 102 kPa) [°C] | vapor or sublimation pressure ([1]; 367.9 K) [kPa] | vapor or sublimation pressure ([1]; 370.6 K) [kPa] | vapor or sublimation pressure ([1]; 373.6 K) [kPa] | vapor or sublimation pressure ([1]; 375.1 K) [kPa] | vapor or sublimation pressure ([1]; 379.3 K) [kPa] | Boiling temperature at pressure P ([2]; 72.04 kPa) [°C] | Boiling temperature at pressure P ([2]; 78.83 kPa) [°C] | Boiling temperature at pressure P ([2]; 85.94 kPa) [°C] | Boiling temperature at pressure P ([2]; 89.82 kPa) [°C] | Boiling temperature at pressure P ([2]; 101.39 kPa) [°C] |
| --- | --- | --- | --- | --- | --- | --- | --- | --- | --- | --- | --- | --- | --- | --- | --- | --- | --- | --- | --- | --- |
| OC1CCCC1 [cyclopentanol] | 71.5 ± 2.7 | 77.95 ± 2.8 | 85.5 ± 2.9 | 89.69 ± 3.3 | 101.79 ± 3.4 | 130.2 ± 1 | 133.1 ± 1 | 135.5 ± 1 | 136.2 ± 1 | 140.5 ± 1 |  |  |  |  |  |  |  |  |  |  |
| COC1CCCC1 [methoxycyclopentane] |  |  |  |  |  |  |  |  |  |  | 71.5 ± 2.4 | 77.95 ± 2.5 | 85.5 ± 2.6 | 89.69 ± 2.9 | 101.79 ± 2.9 | 95.1 ± 1 | 98.1 ± 1 | 100.2 ± 1 | 102.2 ± 1 | 106.1 ± 1 |
